Results reported in a melting point compilation (Tetko et al.; mined from patent text by program, amines drawn as free bases though some values may be those of a salt).

Row | melting point [°C] | SMILES
1 | 245 to 247 | CCOC(=O)Nc1nc(-c2ccccc2)c(-c2nc3ccccc3c(=O)n2-c2ccc(C(C)=O)cc2)s1
2 | 153 | OC(CNC1=NCCN1)c1ccc(F)cc1 (stereo not drawn)
3 | 113 to 116 | CC1(C)CC(=O)C(C(=S)Nc2ccc(Cl)c(Cl)c2)C(=O)C1
4 | 65 to 73 | COc1cccc(CNc2nccc(-c3cc(N4CCN(CCCN5CCOCC5)CC4)c4cc(OC)ccc4c3)n2)c1
5 | 118 to 120 | CC(C)CC(NC(=O)C1CCCN1C(=O)OCc1ccccc1)OCC(=O)O (stereo not drawn)
6 | 148 to 149 | CCCOCC1(C)CCCOc2cc(C#Cc3ccc(C(=O)O)cc3)ccc21 (stereo not drawn)
7 | 106 to 107 | Cn1nc(COc2ccc(CCCC#N)cc2)nc1-c1ccccc1
8 | 146 to 148 | CCC1OC(=O)Nc2ccc(-c3cccc(Cl)c3)cc21 (stereo not drawn)
9 | 144 | COC(=O)C1(O)CCCC(=O)C1N=Nc1ccccc1 (stereo not drawn)
10 | > 250 | CC(=O)N1CCc2cc3c(cc21)C(=O)C(=O)N3
11 | 81 to 82 | COc1ccc(C)c(NCc2ccccc2)c1
12 | 226 to 227 | O=C(O)C1=Cc2ccc(Cl)cc2SC1C(F)(F)F (stereo not drawn)
13 | 152 to 153 | c1cncc(Cn2c(-c3ccc4c(c3)OCO4)nc3ccccc32)c1
14 | 179 | OC1CSC(Oc2cccc(-c3cccnc3)n2)C(O)C1O (stereo not drawn)
15 | 137 to 138 | COc1ccc(C(=O)c2ccc(OCc3nc(-c4ccccc4)oc3C)nc2)c(O)c1
16 | 122 to 124 | COc1ccc2oc(N(C=O)[C@@H](Cc3ccccn3)c3ncc(-c4ccc(N5CCOCC5)cc4)n3C)cc2c1
17 | 210 to 220 | c1c(NC23CC4CC(CC(C4)C2)C3)nc(N2CCNCC2)nc1NC12CC3CC(CC(C3)C1)C2
18 | 177 to 179 | Cc1c(C(=O)CN2CCCCC2)c(C)n(C)c1C(=O)c1ccc(Cl)cc1Cl
19 | 104 to 108 | Clc1c2ccccc2nc2cc(-c3ccccc3)ccc12
20 | 127 to 139 | NCc1cccc(Cn2ccc(OCc3ccc(F)cc3)c(Br)c2=O)c1

Row | melting point [°C] | SMILES
21 | 120 | O=C1O[C@H](C(O)O)CCN1Cc1ccccc1
22 | 134 to 139 | CCN(CC)CCNc1ccc(CNS(C)(=O)=O)c2sc3ccc(Br)cc3c(=O)c12
23 | 292 to 294 | O=c1[nH]c2ncc(-c3ccc(-c4cc[nH]n4)cc3)nc2n1CC1CCCCC1
24 | 296 to 297 | CC(C)(C)c1ccc(C(=O)Nc2cn3nc(NC4CCCCC4)ccc3n2)cc1
25 | 127 | Cc1cc(C(CC2CCCC2)c2ccc(S(C)(=O)=O)cc2)[nH]c1C(=O)O (stereo not drawn)
26 | 126 to 128 | O=C(O)/C(=C\c1ccccc1)CC(=O)N1C[C@H]2CCCC[C@H]2C1
27 | 221 to 223 | CN(C)CCC1CSc2c(C(=O)O)c(=O)c3cc(F)c(N4CCN(C)CC4)cc3n21 (stereo not drawn)
28 | 79 to 81 | Cc1ccc(Oc2ccc(OC(=O)N3CCC(C)CC3)cc2)cc1
29 | 174 to 178 | O=c1c2c(Cl)cccc2nc2sc(Br)cn12
30 | 146 to 147 | N#Cc1cc2n(c1)CCc1ccccc1C2=O
31 | 223 to 226 | COc1ccc(-c2ccccc2)cc1NC(=S)c1ncc[nH]1
32 | 360 | C=CCOc1ccc(-c2ccc(C(=O)O)cc2)cc1
33 | 224 to 226 | CS(=O)(=O)c1ccc(-c2[nH]c3ccccc3c2-c2ccc(F)cc2)cc1
34 | 138 to 140 | Nc1sc2c(c1C(=O)c1ccccc1)CCN(C(=O)OCc1ccccc1)C2
35 | 129 | COc1c(C)cc(-c2cc(-c3ccncc3)c(N3CCOCC3)s2)nc1C
36 | 112 to 115 | Brc1ccc2c(c1)CC(N1CCNCC1)c1ccccc1S2 (stereo not drawn)
37 | 148 to 150 | CN1C(=O)CC[C@]2(C)c3ccc(-c4ccc(Oc5ccccc5)cc4)cc3CC[C@@H]12
38 | 198 to 200 | O=S1NC=Cc2ccccc21 (stereo not drawn)
39 | 271 to 273 | N=C(N)Nc1ccc(C(=O)Nc2cccc3cccnc23)cc1
40 | 66 to 68 | COc1cccc(Oc2ncccc2C#N)c1

Row | melting point [°C] | SMILES
41 | 226 to 227 | CC1(C)CCC(C)(C)c2cc(NC(=O)c3ccc(C=CC(=O)O)cc3)ccc21
42 | 177 to 179 | Cc1c(Sc2ccc(Cl)cc2)nn(-c2ccc(Cl)cc2)c(=O)c1C#N
43 | 209 to 210 | Cc1cc(-c2ccncc2)n2ncc(C(=O)c3ccccc3)c2n1
44 | 235 to 236 | CC(C)c1ccc2c(c1)[C@@H](NC(=O)c1ccc(F)cc1)[C@H](O)C(C)(C)O2 (relative stereo)
45 | 245 to 246 | Cc1c(-c2ccc(OC(F)F)c(OC3CC3)c2)[nH]c2cn[nH]c(=O)c12
46 | 101 | COC(=O)c1ccc(Oc2cccnc2)c(N)c1
47 | 191 to 193 | COc1ccc2cc(-c3csc(-c4ccccc4)n3)ccc2c1
48 | 136 to 137 | CCOc1nn(Cc2ccc(OCn3nnc4ccccc43)cc2)cc1CCC(=O)O
49 | 200 to 201 | O=C(c1cc(Br)ccc1[N+](=O)[O-])C(Br)C(Br)c1ccc(Br)cc1 (stereo not drawn)
50 | 117 to 119 | O=C(O)CC1(c2ccccc2)Oc2ccc(Cl)cc2O1 (stereo not drawn)
51 | 120 to 123 | CCC(=O)c1cc(OCc2ccccc2)c(OC)cc1[N+](=O)[O-]
52 | 288 to 290 | O=C(O)c1ccc2nc3n(c(=O)c2c1)CCCC3=Cc1ccccc1
53 | 72.4 to 74.8 | O=C1CCc2cc3c(cc21)CCC3
54 | 114 to 117 | COc1cc(OC)c(NC(=O)C(c2ccccc2)n2nnc(C(c3ccccc3)c3ccccc3)n2)c(OC)c1 (stereo not drawn)
55 | 184 to 185 | O=C1Nc2cccc(-c3ccccc3)c2/C1=C/c1ccc[nH]1
56 | 161 to 162 | COc1cc(CCCC2OC(=O)NC2=O)ccc1OCc1nc(-c2ccccc2)oc1C (stereo not drawn)
57 | 187 | COc1ccc(C(=O)c2c(F)cccc2F)cc1CC(=O)O
58 | 32 to 34 | C=CCSc1nnc(OC)c2ccccc12

More lines, now with the values behind:

Row | SMILES | melting point [°C]
59 | Cc1nccc(C#N)c1OC1SCC(O)C(O)C1O (stereo not drawn) | 161
60 | Cc1nc(-c2cn(-c3cc(-c4ccc(C(F)(F)F)cc4)cc(C(F)(F)F)n3)cn2)sc1S(=O)(=O)NC(C)(C)C | 260
61 | CNC(=O)c1ccc(C=CC(=O)NCC(=O)N(C)c2ccc(Cl)c(COc3cccc4c(OCC(=O)O)cc(C)nc34)c2Cl)cc1 | 233 to 257
62 | NS(=O)(=O)c1cccc(-c2cccc(-c3nc(-c4ccc(C(F)(F)F)cc4F)cc(C(F)(F)F)n3)c2)c1 | 224
63 | CCOC(=O)C(Cc1ccccc1)N(CC)C(=O)OC(C)(C)C (stereo not drawn) | 58 to 61.5
64 | C=CCOc1cccc2nn(C)c(S(N)(=O)=O)c12 | 143 to 144
65 | CC(C)C(=O)NCCOc1ccc(N)cc1 | 99 to 100
66 | CC1(C)COC(CCc2ccc(NC=NO)cc2)OC1 | 159 to 160
67 | COC(=O)c1ccc(-c2nc(COc3ccc(COc4nn(-c5ccccc5)cc4C=O)cc3OC)c(C)o2)cc1 | 190 to 191
68 | CCCCCCCCCCCCCCC(C)C(=O)O (stereo not drawn) | 44 to 46
69 | CCCc1nn(-c2ccc(C(F)(F)F)cn2)cc1COc1ccc(CCC(=O)O)c(OC)c1 | 153 to 154
70 | CCCCCCC(=O)NCC(=O)O | 98 to 100
71 | CCC(C(C)=CC(CNC(=O)c1ccc2c(c1)CC(=O)N2)=NO)[N+](=O)[O-] (stereo not drawn) | 111 to 114
72 | Nc1c(Cl)cc(Nc2ncnc3cnc(N[C@H]4CC[C@H](C(=O)N5CCCC5)CC4)nc23)cc1Cl | 228 to 230
73 | COc1n[nH]c(=O)n1C | 146
74 | CCOC(=O)Cc1ccc(Cc2nc3c(F)c(F)cc(F)c3s2)cc1 | 75 to 77
75 | Cc1c(C(=O)N[C@@H]2CN3CCC2CC3)c2ccccc2n1C | 176 to 177
76 | O=C(O)C1C=COc2cc(Cl)c(Cl)cc21 (stereo not drawn) | 114 to 117
77 | CCCCNC(=O)[C@H](C)C[C@H](O)[C@H](CC1CCCCC1)NC(=O)[C@H](Cc1cscn1)NC(=O)OC(C)(C)C | 172 to 174
78 | CN1Cc2c(C(=O)NN)ncn2-c2ccsc2C1=O | > 260
79 | Cc1nn(C)c(NCC(C)(C)C)c1N | 65 to 69
80 | CCCCCCCCCCCCCCCCCC(=O)Oc1cc(C(C)(C)C)c(O)c(C(C)(C)C)c1 | 35 to 39
81 | COc1ccc(NC(C)=O)c(O)c1C(C)=O | 160 to 162

Row | SMILES | melting point [°C]
82 | Cc1cc(=O)n(-c2cc(C(=O)OC(C)C)c(C#N)cc2F)c(=O)n1C | 188 to 200
83 | CCOC(=O)c1[nH]cc2c1NC1=C(C(=O)CCC1)C2c1ccc(Sc2nc3ccc(F)c(F)c3[nH]2)o1 (stereo not drawn) | 144 to 148
84 | CC(=O)NC(Cc1ccc(C)c(C)c1)C(=O)O (racemic) | 136 to 139
85 | CCc1cc(Br)c2c(O)c(C(=O)OC)c(C(=O)OC)nc2c1 | 207 to 208
86 | O=CN(O)C(CC1CCS(=O)(=O)CC1)CS(=O)(=O)c1ccc(Oc2ccc(OC(F)(F)F)cc2)cc1 (stereo not drawn) | 143 to 144
87 | COC(=O)Nc1cn2nc(OCc3cc(OC)c(OC)c(OC)c3)ccc2n1 | 213 to 215
88 | c1nnc2c3c(c(NCCCCN4CCCC4)nn12)CCCC3 | 158 to 160
89 | NC(=O)N(O)CCOCc1ccoc1 | 99 to 101
90 | CCCCCCCCCCCCCCOc1cc(OCCCOc2ccc(OCc3ccccc3)cc2)cc(C(=O)O)c1 | 77 to 79
91 | CNC(=C[N+](=O)[O-])NCCCSc1nc(C)co1 | 92 to 93
92 | Cc1ccc(OC(C)(C)C=O)c(C#N)c1 | 60 to 64
93 | CC(C)(C)c1cc(-c2c[nH]c(=S)[nH]2)cc(C(C)(C)C)c1O | 168 to 170
94 | Cc1ccnc(NCCCCC(=O)O)c1 | 138 to 140
95 | CCCCNc1c(C(=O)OCC)cnc2onc(C)c12 | 60
96 | CN1C(=O)C(C)(C)c2ccc(C(=O)O)cc21 | 253 to 255
97 | N=C(Nc1ccc(Cl)cc1)NC1CC2C3CC4C2C4C13 (stereo not drawn) | 170 to 171
98 | COc1ccc2cc(-c3noc(C)n3)c(=O)oc2c1 | 218 to 220
99 | CCCCCCCCCCCCCCCCCCOc1cc(OCc2ccccc2)cc(C(=O)OC)c1 | 62 to 64
100 | Cc1ncc2cccc(CCCCCC(=O)O)n12 | 170 to 173
101 | CCCCOc1c(-c2cc(C=CC(=O)O)ccc2O)cc(C(C)(C)C)cc1C(C)(C)C | 92 to 94
102 | CC(C)CCCC(C)C1CCC2C3=CC=C4CC(O)C=CC4(C)C3CCC21C (stereo not drawn) | 126 to 127
103 | Nc1ncnc2c1ncn2CC(/C=C/P(=O)(O)O)CO (stereo not drawn) | > 300
